Test results as given in publication PMC7377239, “Cardiovascular Effects of Polychlorinated Biphenyls and Their Major Metabolites” (Environmental Health Perspectives, 2020).
Counter-ions that a name gives are not always drawn. Like-named read-outs stand apart in the source and are kept apart here.

Assays:
HUVECs = assay: High-content imaging cytotoxicity in HUVECs, 24 h; assay type: cell-based, human; conditions: Homo sapiens, HUVEC, 24 h, HUVECs; for viability at 0.01 µM / activity at 0.01 µM / viability at 0.1 µM / activity at 0.1 µM / viability at 1 µM / activity at 1 µM / viability at 10 µM / activity at 10 µM / viability at 100 µM / activity at 100 µM: 0.00 µM = 100.00; for viability at 0.1 µM / activity at 0.1 µM: 0.10 µM; for minimal effective concentration: top concentration 100.00 µM
Experimental: Similar to the cultivation of iCell®-endothelial cells, HUVEC maintenance and experimentation are detailed elsewhere ([Iwata et al. 2017]). Briefly, HUVECs were thawed, seeded, and grown in T75 tissue culture flasks in Medium 199 with EGM™-2 BulletKits™. HUVECs were incubated at regular cell culture conditions, 37°C and 5% CO2 , and passaged every 2–3 d using TrypLE™ Express. To ensure adequate endothelial function, experiments were performed with cells between passages 1 and 5.
Cytotoxicity was assessed in parallel experiments. For iCell®-endothelial cells, 384-well plates were coated with a 30μg/mL fibronectin solution ( 10μL/well ) and incubated for 2 h at RT. iCell®-endothelial cells were dissociated with TrypLE™ Express and prepared into a solution to achieve 750 cells per well and 50μL of total volume. The fibronectin solution was removed from the 384-well plate, and cells were plated. For HUVECs, similar dissociation and the same cell density were used for plating with the exclusion of the fibronectin solution. Cells were incubated at 37°C and 5% CO2 until a monolayer was formed, typically 3–5 d. 2×PCB plates were created with the requisite maintenance medium. Before treatment, the medium in the wells was exchanged to 25μL/well of fresh maintenance medium. 2×PCB chemical solutions ( […] ) were added. After 24 h incubation at 37°C and 5% CO2 , cells were stained with Hoechst 33342, MitoTracker™ Orange, and calcein AM for 20 min before replacing the staining media with FluoroBright DMEM. Cell culture plates were imaged using the ImageXpress® Micro Confocal high-content imaging system (Molecular Devices). Images were acquired at 10× magnification with DAPI, TRITC, or FITC filter (Hoechst 33342, MitoTracker™, or calcein AM, respectively). The multiwavelength cell scoring applications module in MetaXpress™ (Molecular Devices) was used to analyze the images.
(§1) Phenotypic responses were quantitatively assessed using concentration–response modeling as detailed elsewhere ([Sirenko et al. 2017]). Briefly, phenotypic readouts were normalized to vehicle controls and fit to a four-parameter logistic model in R studio software (version 3.1.1; R Development Core Team). Following EPA guidance on dose–response modeling, a cutoff of one standard deviation across means of vehicle control (i.e., 0.5% vol/vol DMSO in cell culture media) wells was applied to determine the point-of-departure (POD) values ([U.S. EPA 2012]). In the absence of a concentration–response, the highest tested concentration (i.e., 100μM ) was assigned as “no observable adverse effect level.” The concentration–response assessment R script, as well as templates for vehicle and concentration–response data, are available as a supplement to Sirenko et al. ([2017]). The ability of physicochemical properties to predict differences in PODs were evaluated by multiregression and mixed-effects modeling using R.

[1] = system: iCell endothelial cells (human iPSC-derived ECs); assay: Tube formation (tubulogenesis) assay in iCell endothelial cells, 18 h; assay type: cell-based; conditions: Homo sapiens, Endothelial cell, iPSC-EC tube formation, 18 hr; for activity at 0.1 µM: 0.10 µM; for minimal effective concentration: top concentration 100.00 µM
Experimental: The culture conditions of iCell®-endothelial cells were as reported elsewhere ([Iwata et al. 2017]). Briefly, T75 flasks were coated with a fibronectin solution ( 3 μg/cm^2 ) followed by incubation for 1–2 h. Cells were thawed for 3 min in a 37°C water bath. Thawed cells were added to maintenance medium made of VascuLife VEGF Medium Complete Kit, excluding the supplied FBS, and iCell® Endothelial Cells Medium Supplement. The final formulation of the maintenance medium is detailed in ([Iwata et al. 2017]). The aliquoted fibronectin solution was aspirated from the T75 flasks, and cells were seeded at 1.0×10^4 cells/cm^2 . Cells were maintained at 37°C and 5% CO2 with media changes occurring every 2 d and passaged every 3–4 d using TrypLE™ Express. All experiments were conducted on cells between passages 1 and 5.
Tube formation assays were performed on Geltrex™ LDEV-free reduced growth factor basement membrane using both iCell®-endothelial cells and HUVECs in 384-well format exactly as detailed in Iwata et al. ([2017]). Negative controls included media-only and vehicle control (i.e., 0.5% vol/vol DMSO in cell culture media) wells. Positive assay controls were consistent with previously published reports ([Iwata et al. 2017]) and included TAB ( 50μM ) as a cytotoxic control, and nocodazole ( 0.01–1μM ), suramin ( 0.5–50μM ), histamine ( 0.1–100μM ), and chloroquine ( 1–500μM ) as chemicals associated with specific effects on ECs. Each test chemical was screened in triplicate for each concentration. Briefly, for iCell®-endothelial cells, starvation media consisted of VascuLife® basal medium with 4 mM L-glutamine LifeFactor and 0.1% iCell®-endothelial cells medium supplement. To counter dilution effects, a 2× concentration of the HUVEC maintenance medium supplemented with additional VEGF was created (EGM™-2 BulletKits™ at 2× concentration; also the VEGF component was replaced with 12.5 ng/mL VEGF). Geltrex™ LDEV-free reduced growth factor basement membrane was thawed overnight and dispensed into 384-well plates ( 10μL/well ) with tapping and rotating to evenly coat. The plates were incubated for 1 h in a cell culture incubator at 37°C and 5% CO2 . A 2× PCB plate (containing all of the PCBs and metabolites in dose–response) was prepared in basal media and added, 25μL per well, to the Geltrex™ coated plates. On separate plates, cells were seeded 7,500 (iPSC- ECs) or 3,500 (HUVEC) cells/well. Cells were exposed to chemicals overnight at 37°C and 5% CO2 and stained with 3× concentration of calcein AM ( 25μL /well, 6μmol/L ) for 15 min before imaging. Images were captured at 4× magnification with the FITC filter (calcein AM). Images were analyzed with the angiogenesis module software within MetaXpress™ (Molecular Devices).
as §1

[2] = 24 hr, read-out: huvec.cyto.24hr
[3] = 24 hr, read-out: huvec.mito.24hr
[4] = 24 hr, read-out: huvec.mitoint.24hr
[5] = 24 hr, read-out: huvec.nma.24hr
[6] = 24 hrs, read-out: huvec.tc.24hrs
[7] = 0.00 µM control = 100.00, read-out: endo.mtl.18hr
[8] = 0.00 µM control = 100.00, read-out: endo.tlps.18hr
[9] = 0.00 µM control = 100.00, read-out: endo.tta.18hr
[10] = 0.00 µM control = 100.00, read-out: endo.ttl.18hr

SMILES: O=S(=O)(O)Oc1cc(Cl)c(-c2cc(Cl)ccc2Cl)cc1Cl [4-yl PCB 52 sulfate]
- viability at 0.01 µM (HUVECs; [2]): 99.3%
- activity at 0.01 µM (HUVECs; [3]): 98.2%
- activity at 0.01 µM (HUVECs; [4]): 110%
- activity at 0.01 µM (HUVECs; [5]): 98.4%
- viability at 0.1 µM (HUVECs; [2]): 105%
- activity at 0.1 µM (HUVECs; [3]): 105%
- activity at 0.1 µM (HUVECs; [4]): 113%
- activity at 0.1 µM (HUVECs; [5]): 96.2%
- viability at 1 µM (HUVECs; [2]): 93.5%
- activity at 1 µM (HUVECs; [3]): 92.9%
- activity at 1 µM (HUVECs; [4]): 107%
- activity at 1 µM (HUVECs; [5]): 99.1%
- viability at 10 µM (HUVECs; [2]): 91.2%
- activity at 10 µM (HUVECs; [3]): 89.3%
- activity at 10 µM (HUVECs; [4]): 111%
- activity at 10 µM (HUVECs; [5]): 98.4%
- viability at 100 µM (HUVECs; [2]): 59.6%
- activity at 100 µM (HUVECs; [3]): 61.8%
- activity at 100 µM (HUVECs; [4]): 74.7%
- activity at 100 µM (HUVECs; [5]): 206%
- minimal effective concentration (HUVECs; 24 hr, read-out: huvec.cyto.24hr POD): 5.38 µM
- minimal effective concentration (HUVECs; 24 hr, read-out: huvec.mito.24hr POD): 3.31 µM
- minimal effective concentration (HUVECs; 24 hr, read-out: huvec.mitoint.24hr POD): 61.2 µM
- minimal effective concentration (HUVECs; 24 hr, read-out: huvec.nma.24hr POD): 33.9 µM
- viability at 0.01 µM (HUVECs; [6]): 99.3%
- viability at 0.1 µM (HUVECs; [6]): 105%
- viability at 1 µM (HUVECs; [6]): 93.5%
- viability at 10 µM (HUVECs; [6]): 91.2%
- viability at 100 µM (HUVECs; [6]): 61.8%
- minimal effective concentration (HUVECs; 24 hrs, read-out: huvec.tc.24hrs POD): 5.38 µM
- activity at 0.01 µM [1, 7]: 116%
- activity at 0.01 µM [1, 8]: 87.8%
- activity at 0.01 µM [1, 9]: 122%
- activity at 0.01 µM [1, 10]: 129%
- activity at 0.1 µM [1, 7]: 108%
- activity at 0.1 µM [1, 8]: 115%
- activity at 0.1 µM [1, 9]: 115%
- activity at 0.1 µM [1, 10]: 119%
- activity at 1 µM [1, 7]: 109%
- activity at 1 µM [1, 8]: 108%
- activity at 1 µM [1, 9]: 112%
- activity at 1 µM [1, 10]: 119%
- activity at 10 µM [1, 7]: 73.9%
- activity at 10 µM [1, 8]: 46.2%
- activity at 10 µM [1, 9]: 70%
- activity at 10 µM [1, 10]: 71.1%
- activity at 100 µM [1, 7]: 46.8%
- activity at 100 µM [1, 8]: 10.1%
- activity at 100 µM [1, 9]: 0.18%
- activity at 100 µM [1, 10]: 0.34%
- minimal effective concentration ([1]; read-out: endo.mtl.18hr POD): 7.44 µM
- minimal effective concentration ([1]; read-out: endo.tlps.18hr POD): 5.74 µM
- minimal effective concentration ([1]; read-out: endo.tta.18hr POD): 8.83 µM
- minimal effective concentration ([1]; read-out: endo.ttl.18hr POD): 9.64 µM
